Results on 15 compounds are retold here after patent US20200368315A1, “ANTIMICROBIAL PEPTIDES AND ADMIXTURES THEREOF SHOWING ANTIMICROBIAL ACTIVITY AGAINST GRAM-NEGATIVE PATHOGENS” (priority 2017, published 2020).

One assay concerns A. baumannii LMG01041. Description: microbe, parasite or virus in culture. It is filed as cell-based, Acinetobacter baumannii. On the procedure:
(§1) Escherichia coli, Klebsiella pneumoniae, Pseudomonas aeruginosa, Acinetobacter baumannii, Enterobacter aerogenes were grown in Luria-Bertani (LB) broth shaken (200 rpm) or on LB agar at 37° C. […] MICs tests were performed in duplicate by a liquid growth inhibition microdilution assays in sterilized polypropylene microtiter plates according to Wiegand and […] [27]. […] The suspension was diluted in a ratio of 1:100 using Mueller Hinton Broth (MHB) and the final inoculum is 5*10^5 CFU/mL. […] The antimicrobials were diluted serially by 1/2 one by one and 50 uL diluted bacterial suspension were added to each well to make the final volume to be 100 uL. Growth control was accomplished by remove 10 uL from well 11 and dilute 1000 times to plate 1/10 suspension on the solid medium. […] The number of colonies on the control agar plate should be around 50 to ensure the concentration of the inoculum and the effectiveness of the experiment. The lowest concentration of the antimicrobials that inhibits visible growth of the indicator is identified as MIC.

In a further assay the test system is K. pneumoniae LMG20218. As to the kind of experiment: microbe, parasite or virus in culture. The assay is classed as cell-based, Klebsiella pneumoniae. As for the experimental part:
as §1

A further assay deals with Gram-negative pathogens. The assay is classed as cell-based. The settings on record: L-form GNPs alone; five Gram-negative pathogens. As for the experimental part: as §1
The next assay relates to E. aerogenes LMG 02094. As to the kind of experiment: microbe, parasite or virus in culture. The assay is classed as cell-based, Enterobacter aerogenes. As for the experimental part: as §1
For a further assay, the system named is E. coli LMG15862. As to the kind of experiment: microbe, parasite or virus in culture. It is filed as cell-based, Escherichia coli. The settings on record: for MICb (GNP concentration when used alone): L-form GNP, Table 6. On the procedure: as §1
A further assay concerns P. aeruginosa LMG 6395. As to the kind of experiment: microbe, parasite or virus in culture. The assay is classed as cell-based, Pseudomonas aeruginosa. As for the experimental part:
as §1

For assay [1] the following is noted: cited from earlier work.
The test system of the next assay is indicator strains. To be noted: indicator strain not given; cited from earlier work.

Converted amounts (≈) assume the structure as drawn. Read-outs that look alike come from different tables or passages of the source. Non-standard residues stand in square brackets, D forms with d. Residues, ends and D or L forms follow the SMILES beside them. No end group written: not given here. Some results are limits rather than exact numbers.

In the case of RIWVIWRR-NH2 [GNP-5], the “MICb (MIC of GNP alone)” value in the assay with A. baumannii LMG01041 (LMG01041) came out at 2 µM; with K. pneumoniae LMG20218 (LMG20218), 6 µM; with E. aerogenes LMG 02094 (LMG 02094) it was 5 µM; in the assay with P. aeruginosa LMG 6395 (LMG 6395), 3 µM. The “Activity ranking amongst all the GNPs” value in the assay on Gram-negative pathogens is on record as “most potent”. Also, in the assay on E. coli LMG15862 (E. coli LMG15862), the “MICb (GNP concentration when used alone)” value is 3 µM.
For `CC[C@@H](C)[C@@H](NC(=O)CN)C(=O)NCC(=O)N[C@H](CCCCN)C(=O)N[C@H](Cc1c[nH]cn1)C(=O)N[C@@H](C(=O)NCC(=O)N[C@H](CCCCN)C(=O)N[C@H](C)C(=O)N[C@H](CC(C)C)C(=O)N[C@H](CCCCN)C(=O)NCC(=O)N[C@H](CC(C)C)C(=O)N[C@H](CCCCN)C(=O)NCC(=O)N[C@H](CC(C)C)C(=O)N[C@H](CC(C)C)C(=O)N[C@H](CCCCN)C(=O)NCC(=O)N[C@H](CC(C)C)C(=O)NCC(=O)N[C@H](CCC(=O)O)C(=O)N[C@H](CS)C(=O)O)C(C)C` [GNP-D7] (H-G[dI]G[dK][dH][dV]G[dK][dA][dL][dK]G[dL][dK]G[dL][dL][dK]G[dL]G[dE][dC]-OH; N-terminus and C-terminus assumed), the “MICb (MIC of GNP alone)” value in the assay with A. baumannii LMG01041 (D form GNP, A. baumannii LMG01041, Table 9) was determined as 2 µM; with K. pneumoniae LMG20218 (D form GNP, K. pneumoniae LMG20218, Table 9), 4 µM; in the assay on E. aerogenes LMG 02094 (D form GNP, E. aerogenes LMG 02094, Table 9), 4 µM; in the assay with E. coli LMG15862 (D form GNP, E. coli LMG15862, Table 9), 2 µM; in the assay with P. aeruginosa LMG 6395 (D form GNP, P. aeruginosa LMG 6395, Table 9), 4 µM. Besides, the MIC value in the assay with A. baumannii LMG01041 (LMG01041) was found to be 2 µM (≈ 4.55 µg/mL); in the assay with K. pneumoniae LMG20218 (LMG20218), 4 µM (≈ 9.11 µg/mL); against E. aerogenes LMG 02094 (LMG 02094), 4 µM (≈ 9.11 µg/mL); in the assay with E. coli LMG15862 (LMG15862), 2 µM (≈ 4.55 µg/mL); in the assay with P. aeruginosa LMG 6395 (LMG 6395) it was 4 µM (≈ 9.11 µg/mL).
For KRIVQRIKKWLR-NH2 [GNP-9], the “MICb (MIC of GNP alone)” value is 16 µM in the assay on A. baumannii LMG01041 (LMG01041), 64 µM in the assay on K. pneumoniae LMG20218 (LMG20218), more than 32 µM in the assay with E. aerogenes LMG 02094 (LMG 02094) and 16 µM with P. aeruginosa LMG 6395 (LMG 6395). For the same compound, the “MICb (GNP concentration when used alone)” value with E. coli LMG15862 (E. coli LMG15862) is 4 µM.
As to “K12S (ITSISLCTPGCSTGALMGCNMKTATCHCSIHVSK; cysteine pairing not given here; also: lantibiotic nisin-A; UniProt P13068 24-57, looked up, variant K12S)”, in assay [1] (gene nisA (nisin A mutants)), the “Biological activity (relative to the wild type)” value is listed as “Increased (Increased activity, >120% compared to the activity of wild type nisin A/Z)”.
As for `CCCCCCCCCCNCCN[C@@]1(C)C[C@H](O[C@H]2[C@H](Oc3c4cc5cc3Oc3ccc(cc3Cl)[C@@H](O)[C@@H](NC(=O)[C@@H](CC(C)C)NC)C(=O)N[C@@H](CC(N)=O)C(=O)N[C@H]5C(=O)N[C@H]3C(=O)N[C@H](C(=O)N[C@H](C(=O)O)c5cc(O)c(CNCP(=O)(O)O)c(O)c5-c5cc3ccc5O)[C@H](O)c3ccc(c(Cl)c3)O4)O[C@H](CO)[C@@H](O)[C@@H]2O)O[C@@H](C)[C@H]1O` [Telavancin], in the assay on indicator strains, the “Biological activity (relative to the wild type)” value is reported as “Increased (Increased activity, >120% compared with the activity of vancomycin)”.
Regarding “Chlorobiphenyl Des-methyl vancomycin [Compound 8]”, the “Biological activity (relative to the wild type)” value with indicator strains is “Increased (Increased activity, >120% compared with the activity of vancomycin)”.
As to “K22S (ITSISLCTPGCKTGALMGCNMSTATCHCSIHVSK; cysteine pairing not given here; also: lantibiotic nisin-A; UniProt P13068 24-57, looked up, variant K22S)”, the “Biological activity (relative to the wild type)” value in assay [1] (gene nisA (nisin A mutants)) is “Increased (Increased activity, >120% compared to the activity of wild type nisin A/Z)”.
As to `CN[C@H](CC(C)C)C(=O)N[C@H]1C(=O)N[C@@H](CC(N)=O)C(=O)N[C@H]2C(=O)N[C@H]3C(=O)N[C@H](C(=O)N[C@H](C(=O)O)c4cc(O)cc(O)c4-c4cc3ccc4O)[C@H](O)c3ccc(c(Cl)c3)Oc3cc2cc(c3O[C@@H]2O[C@H](CO)[C@@H](O)[C@H](O)[C@H]2O[C@H]2C[C@](C)(NCc3ccc(-c4ccc(Cl)cc4)cc3)[C@H](O)[C@H](C)O2)Oc2ccc(cc2Cl)[C@H]1O` [Compound 1, Chlorobiphenyl Vancomycin], the “Biological activity (relative to the wild type)” value in the assay on indicator strains is reported as “Increased (Increased activity, >120% compared with the activity of vancomycin)”.
For the compound “N20P (ITSISLCTPGCKTGALMGCPMKTATCHCSIHVSK; not fully specified; cysteine pairing not given here; also: lantibiotic nisin-A; UniProt P13068 24-57, looked up, variant N20P)”, the “Biological activity (relative to the wild type)” value in assay [1] (gene nisA (nisin A mutants)) is “Increased (Increased activity, >120% compared to the activity of wild type nisin A/Z)”.
With “K12T (ITSISLCTPGCTTGALMGCNMKTATCHCSIHVSK; cysteine pairing not given here; also: lantibiotic nisin-A; UniProt P13068 24-57, looked up, variant K12T)”, the “Biological activity (relative to the wild type)” value in assay [1] (gene nisA (nisin A mutants)) is “Increased (Increased activity, >120% compared to the activity of wild type nisin A/Z)”.
As to “M21V (ITSISLCTPGCKTGALMGCNVKTATCHCSIHVSK; cysteine pairing not given here; also: lantibiotic nisin-A; UniProt P13068 24-57, looked up, variant M21V)”, the “Biological activity (relative to the wild type)” value in assay [1] (gene nisA (nisin A mutants)) is listed as “Increased (Increased activity, >120% compared to the activity of wild type nisin A/Z)”.
Teicoplanin [2a]: the “Biological activity (relative to the wild type)” value in the assay with indicator strains was “Increased (Increased activity, >120% compared with the activity of vancomycin)”.
Turning to “K12V (ITSISLCTPGCVTGALMGCNMKTATCHCSIHVSK; cysteine pairing not given here; also: lantibiotic nisin-A; UniProt P13068 24-57, looked up, variant K12V)”, in assay [1] (gene nisA (nisin A mutants)), the “Biological activity (relative to the wild type)” value was “Increased (Increased activity, >120% compared to the activity of wild type nisin A/Z)”.
As to “N20V (ITSISLCTPGCKTGALMGCVMKTATCHCSIHVSK; not fully specified; cysteine pairing not given here; also: lantibiotic nisin-A; UniProt P13068 24-57, looked up, variant N20V)”, the “Biological activity (relative to the wild type)” value in assay [1] (gene nisZ (nisin Z mutants)) is given as “Increased (Increased activity, >120% compared to the activity of wild type nisin A/Z)”.
As for GIGKHVGKALKGLKGLLKGLGEC [GNP-7], the “MICb (MIC of GNP alone)” value with A. baumannii LMG01041 (LMG01041) was 2 µM; with K. pneumoniae LMG20218 (LMG20218), 12 µM; with E. aerogenes LMG 02094 (LMG 02094), 8 µM; with P. aeruginosa LMG 6395 (LMG 6395) it was 13 µM. The “MICb (GNP concentration when used alone)” value with E. coli LMG15862 (E. coli LMG15862) was 6 µM.
